In US20220257592A1, “METHODS OF TREATING CANCER” (HOFFMANN-LA ROCHE INC., priority 2019, published 2022):
Marks after values point to notes of the source that are not given here.

What was measured:
[1] = biological target: anaplastic lymphoma kinase (ALK) (Homo sapiens, UniProt Q9UM73); settings: cited from earlier work
[2] = human, in vivo

anaplastic lymphoma kinase (ALK), sequence (Q9UM73 19-1620): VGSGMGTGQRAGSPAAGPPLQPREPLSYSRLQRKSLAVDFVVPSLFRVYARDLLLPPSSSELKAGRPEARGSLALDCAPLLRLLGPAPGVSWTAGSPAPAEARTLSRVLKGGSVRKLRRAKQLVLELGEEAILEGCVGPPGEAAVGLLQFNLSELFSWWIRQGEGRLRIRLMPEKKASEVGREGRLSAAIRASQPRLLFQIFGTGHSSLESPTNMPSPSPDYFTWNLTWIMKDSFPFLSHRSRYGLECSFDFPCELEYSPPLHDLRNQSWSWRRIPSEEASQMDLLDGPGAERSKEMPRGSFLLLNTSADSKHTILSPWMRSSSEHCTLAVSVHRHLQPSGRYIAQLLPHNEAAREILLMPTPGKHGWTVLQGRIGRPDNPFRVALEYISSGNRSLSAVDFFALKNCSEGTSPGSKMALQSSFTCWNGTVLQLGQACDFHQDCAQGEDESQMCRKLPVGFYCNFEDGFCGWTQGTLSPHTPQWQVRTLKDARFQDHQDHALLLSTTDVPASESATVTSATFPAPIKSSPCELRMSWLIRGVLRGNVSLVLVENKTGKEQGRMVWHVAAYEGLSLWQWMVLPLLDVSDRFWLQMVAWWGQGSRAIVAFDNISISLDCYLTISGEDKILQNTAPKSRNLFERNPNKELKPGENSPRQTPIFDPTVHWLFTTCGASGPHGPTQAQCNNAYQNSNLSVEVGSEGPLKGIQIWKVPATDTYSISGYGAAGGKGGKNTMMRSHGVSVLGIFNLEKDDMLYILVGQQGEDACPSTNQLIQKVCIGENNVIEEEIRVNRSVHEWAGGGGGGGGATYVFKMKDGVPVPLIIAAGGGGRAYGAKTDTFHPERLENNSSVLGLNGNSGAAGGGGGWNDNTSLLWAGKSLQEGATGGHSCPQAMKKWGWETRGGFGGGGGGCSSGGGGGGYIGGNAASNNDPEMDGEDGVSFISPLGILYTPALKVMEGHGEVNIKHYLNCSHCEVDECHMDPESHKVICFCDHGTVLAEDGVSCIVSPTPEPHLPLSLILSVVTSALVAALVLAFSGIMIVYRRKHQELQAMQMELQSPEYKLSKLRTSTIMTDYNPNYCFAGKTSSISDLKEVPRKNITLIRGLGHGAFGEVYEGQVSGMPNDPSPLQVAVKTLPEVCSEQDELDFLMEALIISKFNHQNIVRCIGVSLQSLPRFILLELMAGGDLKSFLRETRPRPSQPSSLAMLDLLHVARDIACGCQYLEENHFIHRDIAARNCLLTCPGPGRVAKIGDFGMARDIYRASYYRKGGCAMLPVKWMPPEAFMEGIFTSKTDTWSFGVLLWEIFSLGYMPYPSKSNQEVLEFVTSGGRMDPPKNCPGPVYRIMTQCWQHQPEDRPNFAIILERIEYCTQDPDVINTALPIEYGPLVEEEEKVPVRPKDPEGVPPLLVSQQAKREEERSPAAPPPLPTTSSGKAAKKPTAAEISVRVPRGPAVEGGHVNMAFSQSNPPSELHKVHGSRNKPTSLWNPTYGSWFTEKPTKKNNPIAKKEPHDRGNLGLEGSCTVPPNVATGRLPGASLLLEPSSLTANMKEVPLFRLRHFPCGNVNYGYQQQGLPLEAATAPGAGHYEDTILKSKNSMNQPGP

## CN1CCN(c2ccc(C(=O)Nc3n[nH]c4ccc(Cc5cc(F)cc(F)c5)cc34)c(NC3CCOCC3)c2)CC1 [Entrectinib, N-[5-(3,5-difluorobenzyl)-1H-indazol-3-yl]-4-(4-methyl-piperazin-1-yl)-2-(tetrahydro-pyran-4-ylamino)-benzamide]
[1]
  inhibition of ALK tyrosine kinase: potent inhibitor
[2]; both
  Dyspnea, Grade ≥3: 6* %
  Fatal event: completed suicide: 0.3%
  Fatal event: dyspnea: 0.6%
  Fatal event: pneumonia: 0.6%
  Fatal event: sepsis: 0.6%
  Fatal event: tumor lysis syndrome: 0.3%
[2]
  Lung infection, Grade ≥3: 6* %
